Patent US7217703B2, “8-(2-hydroxyphenoxy)octyldiethanolamine and salts thereof for delivery of active agents” (Emisphere Technologies, Inc., priority 2004, dated 2007)

Experiment: Oral absorption of Ibandronate in rats (urine Ibandronate, 16 h collection, GC/MS)
Format: in vivo, male Sprague-Dawley rats
Details: oral gavage, rat, urine 0-16 h post-dosing
Method: Oral absorption studies were performed in rats to evaluate the delivery of the bisphosphonate, Ibandronate, when co-administered with a delivery agent compound of the present invention. Sprague-Dawley rats were administered Ibandronate alone or in combination with a delivery agent compound by oral gavage. Urine samples were collected up to 16 hours post-dosing for Ibandronate quantitations. […]
Urine Ibandronate levels from treated rats were determined using a GC/MS method with a standard calibration range of 0–2000 ng/mL and a limit of quantitation (LOQ) of 2.5 ng/ml. Quality control (QC) samples were prepared fresh daily and were analyzed with samples from treated rats. […]
The amount of Ibandronate excreted in the urine is the dose response and was plotted as a straight line against the Ibandronate dose (linear dose-response relationship was assumed). The relative potency of the four delivery agent-containing Ibandronate formulations were calculated against the control formulations (without delivery agent) using a Student's t-test. […]

## CCCCCN(C)CCC(O)(P(=O)(O)O)P(=O)(O)O [Ibandronate]
Ibandronate 5 mg/kg alone
  Mean urine Ibandronate concentration: 426.8
Ibandronate 15 mg/kg alone
  Mean urine Ibandronate concentration: 4157.5
